Data taken from patent US9733236B2, “Methods for determining the effect of an agent on tissue stem cells” (priority 2014, dated 2017).
“Also recorded” adds a separate entry of the source. Where a name gives a salt, the structure may show the parent alone.

Tests used:
[1] = clinical effects of the known drug; cited from earlier work
[2] = test system: tissue stem cells, transient cells; conditions: cell kinetics type the agent acts on; positive control agents; cited from earlier work
[3] = test system: tissue stem cells; conditions: in vitro; known in the art; cited from earlier work
[4] = test system: human liver stem cell-enriched cultures; test: Serial culture of human liver stem cell strains with xanthosine (cumulative population doublings); assay type: cell-based; conditions: FIG. 14A
Description: Using a pre-existing dataset developed with control human mini-tissue cultures and cultures treated with the purine nucleoside xanthosine as the test agent, we have validated the ability to use basic cell culture data, described in the methods herein, to detect effects on liver tissue stem cells. […] We used xanthosine as the agent to expand human liver stem cell strains and to produce human liver mini-tissues. […] Thus, culture systems of cells comprising heterogeneous cell population of stem, transient, and differentiated cells can be used to evaluate the activity of a test agent against tissue stem cells by using the methods described herein.
As an initial test of this ability, we used existing data sets from serial culture of our human liver stem cell strains.^14,15 Because these analyses were not ideally developed for the PSCK computer simulation format, they represented a more challenging validation.
The validation agent used was xanthosine, a purine nucleoside that we have shown independently to induce tissue stem cells to switch from asymmetric self-renewal divisions to symmetric divisions that lead to self-replication.

Row | Compound | Clinical Effects [1] | Cell-type Specificity [2] | further results
1 | O=P1(N(CCCl)CCCl)NCCCO1 (stereo not drawn) [cyclophosphamide] | Cytoxan ®; extremely myelosuppressive | SC and TC | –
2 | CC(=O)[C@]1(O)Cc2c(O)c3c(c(O)c2[C@@H](O[C@H]2C[C@H](N)[C@H](O)[C@H](C)O2)C1)C(=O)c1ccccc1C3=O [idarubicin] | Targets hematopoietic progenitors | – | –
3 | Cc1ccc(NC(=O)c2ccc(CN3CCN(C)CC3)cc2)cc1Nc1nccc(-c2cccnc2)n1 [imatinib mesylate] | – | TC^b | –
4 | Cc1ccc(C(=O)Nc2ccc(CN3CCN(C)CC3)c(C(F)(F)F)c2)cc1C#Cc1cnc2cccnn12 [ponatinib] | Inclusig ®; myelosuppressive | – | –
5 | CS(=O)(=O)c1ccc(C2=C(c3ccccc3)C(=O)OC2)cc1 [refecoxib] | Vioxx ®; idiosyncratic life-threatening toxicity | SC and TC | –
6 | Cn1cncc1[C@@](N)(c1ccc(Cl)cc1)c1ccc2c(c1)c(-c1cccc(Cl)c1)cc(=O)n2C [tipifarnib] | Highly toxic with myelosuppression | – | –
7 | O=c1[nH]c(=O)c2ncn([C@@H]3O[C@H](CO)[C@@H](O)[C@H]3O)c2[nH]1 [xanthosine] | – | SC^a | tissue stem cell self-replication [3]: increases self-replication by adult tissue stem cells; also recorded: (In vitro, increases tissue SC self-replication)^1-5; proliferative rate and extent of human liver stem cell serial cultures ([4]; experimental data): increase the proliferative rate and extent; population doublings reached in serial culture ([4]; xanthosine-supplemented culture, control arrests after less than 30 population doublings): greater than 80 population doublings
